According to PubChem BioAssay AID652224 (The Scripps Research Institute Molecular Screening Center, 2013):
The source made the active and inactive calls.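 Rule for the calls: active = at least 70% inhibition of the phosphatase PP5 at 50 µM; inactive = inhibition below 70% at 50 µM.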

These compounds were tested against Serine/threonine-protein phosphatase 5 (Homo sapiens) (UniProt P53041) (assay: inhibition of human PP5 catalytic domain – biochemical, fluorescence, OMFP substrate, powder samples, selectivity assay for PP1 inhibitor project, late-stage follow-up (AID 652224)). Conditions: purified PP5c, OMFP dephosphorylation fluorescence; at 50 µM; hits give high values.
Sequence of Serine/threonine-protein phosphatase 5 (Homo sapiens) (P53041 whole entry, looked up, the tested form may be a part): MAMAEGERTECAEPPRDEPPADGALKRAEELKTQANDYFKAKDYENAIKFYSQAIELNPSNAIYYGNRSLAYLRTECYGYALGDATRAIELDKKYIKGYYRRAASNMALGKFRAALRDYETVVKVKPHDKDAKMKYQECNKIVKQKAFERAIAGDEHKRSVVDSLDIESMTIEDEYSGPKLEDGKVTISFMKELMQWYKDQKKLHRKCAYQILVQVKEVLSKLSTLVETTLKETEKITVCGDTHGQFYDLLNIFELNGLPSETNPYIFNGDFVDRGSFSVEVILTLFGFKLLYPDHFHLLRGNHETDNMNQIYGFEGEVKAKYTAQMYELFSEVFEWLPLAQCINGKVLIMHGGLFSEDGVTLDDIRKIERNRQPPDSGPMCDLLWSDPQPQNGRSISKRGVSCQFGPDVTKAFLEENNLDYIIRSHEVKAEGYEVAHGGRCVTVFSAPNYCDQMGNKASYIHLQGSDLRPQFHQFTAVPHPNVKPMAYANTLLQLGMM

Row | SMILES | inhibition
1 | CN1CCN(C(c2ccccc2)c2cc(Cl)c3cccnc3c2O)CC1 (stereo unspecified) | 15.5% (inactive)
2 | CN1CCN(C(c2ccc3cccnc3c2O)c2ncccc2C(F)(F)F)CC1 (stereo unspecified) | 29.4% (inactive)
3 | CC(C)(C)OC(=O)N1CCN(C(c2ccccn2)c2cc(Cl)c3cccnc3c2O)CC1 (stereo unspecified) | 37.1% (inactive)
4 | Oc1c(CN2CCN(c3ccccn3)CC2)cc(Cl)c2cccnc12 | 32.4% (inactive)
5 | Oc1c(Cc2ccccn2)ccc2cccnc12 | 27% (inactive)
6 | CN1CCN(C(c2ccccn2)c2cc(Cl)ccc2O)CC1 (stereo unspecified) | 4.27% (inactive)
7 | CN1CCN(C(c2cccs2)c2cc(Cl)c3cccnc3c2O)CC1 (stereo unspecified) | 24.7% (inactive)
8 | CN1CCN(C(c2ccccn2)c2cc(Cl)c3ccccc3c2O)CC1 (stereo unspecified) | 12.1% (inactive)
9 | Oc1c(C(c2ccccn2)N2CCN(c3ccccc3F)CC2)cc(Cl)c2cccnc12 (stereo unspecified) | 27% (inactive)
10 | CN1CCN(C(c2ccc(C(F)(F)F)cn2)c2ccc3cccnc3c2O)CC1 (stereo unspecified) | 61.9% (inactive)
11 | CN1CCN(C(c2nccs2)c2cc(Cl)c3cccnc3c2O)CC1 (stereo unspecified) | 35% (inactive)
12 | CN1CCN(C(c2cccnc2)c2cc(Cl)c3cccnc3c2O)CC1 (stereo unspecified) | 9.84% (inactive)
13 | CCOC(c1ccccn1)c1cc(Cl)c2cccnc2c1O (stereo unspecified) | 21.5% (inactive)
14 | CN1CCN(C(c2ccncc2)c2cc(Cl)c3cccnc3c2O)CC1 (stereo unspecified) | 9.09% (inactive)
15 | CN1CCN(Cc2cc(Cl)c3cccnc3c2O)CC1 | 20.1% (inactive)
16 | Oc1c(C(c2ccccn2)N2CCC(Cc3ccccc3)CC2)cc(Cl)c2cccnc12 (stereo unspecified) | 24.6% (inactive)
17 | Oc1c(CN2CCN(c3ccccc3)CC2)cc(Cl)c2cccnc12 | 21.3% (inactive)

The remaining lines, values ahead:

Row | inhibition | SMILES
18 | 68.5% (inactive) | CC1CCN(C(c2ccccn2)c2cc(Cl)c3cccnc3c2O)CC1 (stereo unspecified)
19 | -6.11% (inactive) | COCOc1c(C(c2ccccn2)N2CCN(C)CC2)ccc2cccnc12 (stereo unspecified)
20 | 67.9% (inactive) | CCN1CCN(C(c2ccccn2)c2cc(Cl)c3cccnc3c2O)CC1 (stereo unspecified)
21 | 54.8% (inactive) | Cc1ccnc(C(c2ccc3cccnc3c2O)N2CCN(C)CC2)c1 (stereo unspecified)
22 | 72.5% | Oc1c(C(c2ccccn2)N2CCOCC2)cc(Cl)c2cccnc12 (stereo unspecified)
23 | 45.2% (inactive) | Oc1c(C(c2ccccn2)N2CCCC2)ccc2cccnc12 (stereo unspecified)
24 | 49.2% (inactive) | CN1CCN(C(c2ccccn2)c2ccc3cccnc3c2O)CC1 (stereo unspecified)
25 | 66.1% (inactive) | Cc1cccnc1C(c1ccc2cccnc2c1O)N1CCN(C)CC1 (stereo unspecified)
26 | 24.3% (inactive) | Cc1ccc2ccc(C(c3ccccn3)N3CCN(C)CC3)c(O)c2n1 (stereo unspecified)
27 | 66.2% (inactive) | Cc1ccc(C(c2ccc3cccnc3c2O)N2CCN(C)CC2)nc1 (stereo unspecified)
28 | 75.8% | CN1CCN(C(c2ccccn2)c2cc(Cl)c3cccnc3c2O)CC1 (stereo unspecified)
29 | 58.8% (inactive) | COc1ccnc(C(c2ccc3cccnc3c2O)N2CCN(C)CC2)c1 (stereo unspecified)
30 | -2.26% (inactive) | Cc1cccc(C(c2ccc3cccnc3c2O)N2CCN(C)CC2)n1 (stereo unspecified)
31 | 48.5% (inactive) | COc1ccc(C(c2ccc3cccnc3c2O)N2CCN(C)CC2)nc1 (stereo unspecified)
32 | -0.77% (inactive) | CN1CCN(C(c2ncccn2)c2ccc3cccnc3c2O)CC1 (stereo unspecified)
33 | 14.4% (inactive) | Oc1c(C(c2ccccn2)N2CCNCC2)cc(Cl)c2cccnc12 (stereo unspecified)
34 | -1.09% (inactive) | COc1cccc(C(c2ccc3cccnc3c2O)N2CCN(C)CC2)n1 (stereo unspecified)
35 | 9.57% (inactive) | CN1CCC(NC(c2ccccn2)c2ccc3cccnc3c2O)CC1 (stereo unspecified)
36 | 36.3% (inactive) | Oc1c(C(NC2CCCCC2)c2ccccn2)ccc2cccnc12 (stereo unspecified)
